What was measured:
Details in all cases: 72 h
Caco-2 [1] = experiment: cell viability relative to DMSO; higher = less toxic
Calu-3 [2] = experiment: as above
HepG2 [3] = experiment: as above
U2OS [4] = experiment: as above
Vero E6 [5] = experiment: as above
Caco-2 [6] = experiment: relative viability EC50 (midpoint between 100% and the lowest measured viability); higher = less toxic
Calu-3 [7] = experiment: as above
HepG2 [8] = experiment: as above
U2OS [9] = experiment: as above
Vero E6 [10] = experiment: as above
Caco-2 [11] = experiment: drug sensitivity score (DSS) for viability; higher = more toxic; extreme values may be limits of the assay
Calu-3 [12] = experiment: as above
HepG2 [13] = experiment: as above
U2OS [14] = experiment: as above
Vero E6 [15] = experiment: as above

SMILES | cell viability (Caco-2 [1]; 1 nM) | cell viability (Caco-2 [1]; 10 nM) | cell viability (Caco-2 [1]; 100 nM) | cell viability (Caco-2 [1]; 1000 nM) | cell viability (Caco-2 [1]; 10000 nM) | cell viability (Calu-3 [2]; 1 nM) | cell viability (Calu-3 [2]; 10 nM) | cell viability (Calu-3 [2]; 100 nM) | cell viability (Calu-3 [2]; 1000 nM) | cell viability (Calu-3 [2]; 10000 nM) | cell viability (HepG2 [3]; 1 nM) | cell viability (HepG2 [3]; 10 nM) | cell viability (HepG2 [3]; 100 nM) | cell viability (HepG2 [3]; 1000 nM) | cell viability (HepG2 [3]; 10000 nM) | cell viability (U2OS [4]; 1 nM) | cell viability (U2OS [4]; 10 nM) | cell viability (U2OS [4]; 100 nM) | cell viability (U2OS [4]; 1000 nM) | cell viability (U2OS [4]; 10000 nM) | cell viability (Vero E6 [5]; 1 nM) | cell viability (Vero E6 [5]; 10 nM) | cell viability (Vero E6 [5]; 100 nM) | cell viability (Vero E6 [5]; 1000 nM) | cell viability (Vero E6 [5]; 10000 nM) | relative viability EC50 (Caco-2 [6]) | relative viability EC50 (Calu-3 [7]) | relative viability EC50 (HepG2 [8]) | relative viability EC50 (U2OS [9]) | relative viability EC50 (Vero E6 [10]) | drug sensitivity score (Caco-2 [11]) | drug sensitivity score (Calu-3 [12]) | drug sensitivity score (HepG2 [13]) | drug sensitivity score (U2OS [14]) | drug sensitivity score (Vero E6 [15])
CCN1/C(=C/C(C)=O)Sc2ccc(OC)cc21 [TG-003] | 98.9% | 92.9% | 96.6% | 99.2% | 95.4% | 99.2% | 105% | 106% | 96.8% | 102% | 98% | 96.9% | 93% | 93.2% | 87.2% | 106% | 98.7% | 96.9% | 104% | 102% | 98.9% | 98.6% | 99.1% | 93.5% | 93.7% | > 10 µM | > 10 µM | > 10 µM | > 10 µM | > 10 µM | 0 | 0 | 0.1 | 0 | 0
CC(C)[C@](O)(c1ccc2cc(OC(F)F)c(OC(F)F)cc2c1)c1c[nH]nn1 [VT-464] | 93.3% | 103% | 105% | 95.1% | 88.3% | 104% | 101% | 93.2% | 93% | 96.5% | 101% | 104% | 98.1% | 109% | 90.8% | 96.3% | 101% | 99.2% | 102% | 93% | 98.8% | 103% | 99.3% | 98.2% | 94.5% | > 10 µM | > 10 µM | > 10 µM | > 10 µM | > 10 µM | 0.2 | 0 | 0 | 0 | 0
CCC(=O)OCC(=O)[C@@]1(OC(=O)CC)[C@H](C)C[C@H]2[C@H]3[C@H]([C@@H](O)C[C@@]21C)[C@@]1(C)C=CC(=O)C=C1C[C@H]3Cl [alclometasone-dipropionate] | 97.3% | 101% | 99.7% | 94.7% | 96.8% | 96% | 88.1% | 90.2% | 95.6% | 97.6% | 103% | 101% | 112% | 90.4% | 91.1% | 97.2% | 97% | 91.7% | 96.6% | 90.8% | 108% | 101% | 104% | 98% | 106% | > 10 µM | > 10 µM | > 10 µM | > 10 µM | > 10 µM | 0 | 0 | 0 | 0 | 0
CNC(=O)[C@@H](c1ccccc1)N1CCc2cc(OC)c(OC)cc2[C@@H]1CCc1ccc(C(F)(F)F)cc1 [almorexant] | 92.1% | 99.3% | 96.1% | 108% | 76% | 94.3% | 91.6% | 94.4% | 95.9% | 98.4% | 102% | 103% | 99.5% | 94.2% | 94.1% | 94.7% | 104% | 91.2% | 99.4% | 92.6% | 97.4% | 93% | 95.4% | 92.3% | 109% | > 10 µM | > 10 µM | > 10 µM | > 10 µM | > 10 µM | 0.6 | 0 | 0 | 0 | 0
